Data on 6 compounds can be found in publication PMC10952433, “A Chemoenzymatic Approach To Produce a Cyclic Analogue of the Analgesic Drug MVIIA (Ziconotide)” (Angewandte Chemie (International Ed. in English), 2023).

Molecules are shown by their SMILES.

The target of series [1] is T1, CaV2.2 (Homo sapiens, UniProt Q00975). The experiment in a line: cell-based.
In series [2] the target is T1, CaV2.2.
Series [3] in a line: in vitro. Conditions: simulated intestinal fluid, pH 6.8.

T1 sequence (Q00975 whole entry, looked up): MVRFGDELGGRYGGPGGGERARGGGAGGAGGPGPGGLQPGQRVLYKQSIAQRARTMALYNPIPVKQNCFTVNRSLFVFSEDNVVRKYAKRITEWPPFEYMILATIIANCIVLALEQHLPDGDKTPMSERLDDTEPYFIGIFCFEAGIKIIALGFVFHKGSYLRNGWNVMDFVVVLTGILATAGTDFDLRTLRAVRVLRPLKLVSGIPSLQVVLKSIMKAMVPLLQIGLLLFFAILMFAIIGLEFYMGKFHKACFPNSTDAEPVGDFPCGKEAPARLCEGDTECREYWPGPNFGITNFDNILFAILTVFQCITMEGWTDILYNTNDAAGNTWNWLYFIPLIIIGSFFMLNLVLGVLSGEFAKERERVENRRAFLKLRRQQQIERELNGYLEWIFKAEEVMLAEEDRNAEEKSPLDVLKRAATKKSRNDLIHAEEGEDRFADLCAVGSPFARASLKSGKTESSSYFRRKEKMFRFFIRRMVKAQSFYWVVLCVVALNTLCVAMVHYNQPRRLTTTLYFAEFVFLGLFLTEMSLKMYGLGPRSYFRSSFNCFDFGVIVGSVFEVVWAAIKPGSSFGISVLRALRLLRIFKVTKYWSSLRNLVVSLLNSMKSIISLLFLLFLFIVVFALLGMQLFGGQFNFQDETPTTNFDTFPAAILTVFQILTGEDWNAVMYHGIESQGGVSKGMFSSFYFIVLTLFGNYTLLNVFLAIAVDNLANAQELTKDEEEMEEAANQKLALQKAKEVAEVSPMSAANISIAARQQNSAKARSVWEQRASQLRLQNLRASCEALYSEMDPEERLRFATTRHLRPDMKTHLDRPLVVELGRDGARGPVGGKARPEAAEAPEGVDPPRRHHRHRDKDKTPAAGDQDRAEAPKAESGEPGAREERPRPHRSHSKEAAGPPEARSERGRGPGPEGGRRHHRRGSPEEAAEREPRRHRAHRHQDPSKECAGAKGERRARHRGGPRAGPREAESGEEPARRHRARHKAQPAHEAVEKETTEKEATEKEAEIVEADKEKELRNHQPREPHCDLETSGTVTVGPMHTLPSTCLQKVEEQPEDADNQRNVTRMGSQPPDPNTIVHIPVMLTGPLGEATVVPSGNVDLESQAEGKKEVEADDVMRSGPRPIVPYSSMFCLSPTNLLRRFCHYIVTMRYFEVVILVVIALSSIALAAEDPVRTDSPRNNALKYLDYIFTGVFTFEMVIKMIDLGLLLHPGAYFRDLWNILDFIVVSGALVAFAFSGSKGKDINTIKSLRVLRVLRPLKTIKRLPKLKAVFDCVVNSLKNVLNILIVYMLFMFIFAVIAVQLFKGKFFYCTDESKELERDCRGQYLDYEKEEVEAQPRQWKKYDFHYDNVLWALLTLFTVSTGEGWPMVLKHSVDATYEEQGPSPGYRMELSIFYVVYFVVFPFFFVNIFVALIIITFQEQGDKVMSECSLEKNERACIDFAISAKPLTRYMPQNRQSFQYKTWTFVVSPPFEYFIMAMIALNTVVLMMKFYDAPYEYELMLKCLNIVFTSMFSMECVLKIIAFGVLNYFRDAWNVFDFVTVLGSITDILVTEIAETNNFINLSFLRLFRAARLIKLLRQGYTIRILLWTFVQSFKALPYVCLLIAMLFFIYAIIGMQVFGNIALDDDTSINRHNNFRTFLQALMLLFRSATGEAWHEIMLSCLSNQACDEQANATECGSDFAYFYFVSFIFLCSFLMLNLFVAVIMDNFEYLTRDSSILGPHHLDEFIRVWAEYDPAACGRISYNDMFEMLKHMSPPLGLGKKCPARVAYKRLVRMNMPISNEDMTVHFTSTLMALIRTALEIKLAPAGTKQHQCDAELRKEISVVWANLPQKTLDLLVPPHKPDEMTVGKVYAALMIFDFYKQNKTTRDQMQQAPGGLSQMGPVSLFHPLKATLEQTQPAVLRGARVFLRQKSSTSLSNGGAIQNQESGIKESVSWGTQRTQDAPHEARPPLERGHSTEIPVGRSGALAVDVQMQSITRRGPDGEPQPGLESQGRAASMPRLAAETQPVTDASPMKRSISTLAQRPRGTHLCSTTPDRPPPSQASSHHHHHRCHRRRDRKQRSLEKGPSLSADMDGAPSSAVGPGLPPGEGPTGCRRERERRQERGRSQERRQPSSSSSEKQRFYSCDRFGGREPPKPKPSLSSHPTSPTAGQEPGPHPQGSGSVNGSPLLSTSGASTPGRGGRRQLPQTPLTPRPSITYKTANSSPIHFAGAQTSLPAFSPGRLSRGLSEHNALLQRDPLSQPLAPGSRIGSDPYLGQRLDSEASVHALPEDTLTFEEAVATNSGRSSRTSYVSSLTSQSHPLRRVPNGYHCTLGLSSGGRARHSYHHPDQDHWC

One may read the EC50 as the concentration that produces a half-maximal response. One may read the IC50 as the point on the concentration scale where inhibition reaches its midpoint. Read a high IC50 as lower potency. Consider `CCCC[C@@H]1NC(=O)[C@H](CC(C)C)NC(=O)[C@H](CCCNC(=N)N)NC(=O)[C@H](CO)NC(=O)[C@@H]2CSSC[C@@H]3NC(=O)[C@H](CO)NC(=O)CNC(=O)[C@H]([C@@H](C)O)NC(=O)[C@H](CSSC[C@H](N)C(=O)N[C@@H](CCCCN)C(=O)NCC(=O)N[C@@H](CCCCN)C(=O)NCC(=O)N[C@@H](C)C(=O)N[C@@H](CCCCN)C(=O)N2)NC(=O)[C@H](CSSC[C@@H](C(N)=O)NC(=O)[C@H](CCCCN)NC(=O)CNC(=O)[C@H](CO)NC(=O)[C@H](CCCNC(=N)N)NC3=O)NC(=O)[C@H](CC(=O)O)NC(=O)[C@H](Cc2ccc(O)cc2)NC1=O` [M-2], for which, in series [1], it took 0.0001 µM to reach a half-maximal effect (EC50) and the IC50 came to 0.0001 µM. Moreover, the LogEC50 in series [2] is listed as -9.9.

In the case of `CSCC[C@@H]1NC(=O)[C@H](CC(C)C)NC(=O)[C@H](CCCNC(=N)N)NC(=O)[C@H](CO)NC(=O)[C@@H]2CSSC[C@@H]3NC(=O)[C@H](CO)NC(=O)CNC(=O)[C@H]([C@@H](C)O)NC(=O)[C@H](CSSC[C@H](N)C(=O)N[C@@H](CCCCN)C(=O)NCC(=O)N[C@@H](CCCCN)C(=O)NCC(=O)N[C@@H](C)C(=O)N[C@@H](CCCCN)C(=O)N2)NC(=O)[C@H](CSSC[C@@H](C(=O)O)NC(=O)[C@H](CCCCN)NC(=O)CNC(=O)[C@H](CO)NC(=O)[C@H](CCCNC(=N)N)NC3=O)NC(=O)[C@H](CC(=O)O)NC(=O)[C@H](Cc2ccc(O)cc2)NC1=O` [M-3], in series [1], the EC50 amounted to 0.0017 µM and the IC50 was 0.0017 ± 0.0012 µM. The LogEC50 in series [2] was -8.8.

In series [1], `CCCC[C@@H]1NC(=O)[C@H](CC(C)C)NC(=O)[C@H](CCCNC(=N)N)NC(=O)[C@H](CO)NC(=O)[C@@H]2CSSC[C@@H]3NC(=O)[C@H](CO)NC(=O)CNC(=O)[C@H]([C@@H](C)O)NC(=O)[C@@H]4CSSC[C@H](NC(=O)[C@H](C)NC(=O)CNC(=O)CNC(=O)[C@H](CC(N)=O)NC(=O)CNC(=O)[C@H](C)NC(=O)[C@H](CSSC[C@H](NC(=O)[C@H](CC(=O)O)NC(=O)[C@H](Cc5ccc(O)cc5)NC1=O)C(=O)N4)NC(=O)[C@H](CCCCN)NC(=O)CNC(=O)[C@H](CO)NC(=O)[C@H](CCCNC(=N)N)NC3=O)C(=O)N[C@@H](CCCCN)C(=O)NCC(=O)N[C@@H](CCCCN)C(=O)NCC(=O)N[C@@H](C)C(=O)N[C@@H](CCCCN)C(=O)N2` [cM-6] had an EC50 of 0.0432 µM and a half-maximal inhibitory concentration (IC50) of 0.0432 ± 0.0014 µM. The LogEC50 in series [2] is recorded as -7.4.

As a reminder, the half-life is the time in which the quantity being followed falls by half. A word on the fraction remaining: it is the share of the starting amount still present when the sample was taken. A low value points to more turnover. Turning to `CCCC[C@@H]1NC(=O)[C@H](CC(C)C)NC(=O)[C@H](CCCNC(=N)N)NC(=O)[C@H](CO)NC(=O)[C@@H]2CSSC[C@@H]3NC(=O)[C@H](CO)NC(=O)CNC(=O)[C@H]([C@@H](C)O)NC(=O)[C@@H]4CSSC[C@H](NC(=O)[C@H](C)NC(=O)[C@H](C)NC(=O)CNC(=O)CNC(=O)[C@H](CC(N)=O)NC(=O)CNC(=O)[C@H](C)NC(=O)[C@H](CSSC[C@H](NC(=O)[C@H](CC(=O)O)NC(=O)[C@H](Cc5ccc(O)cc5)NC1=O)C(=O)N4)NC(=O)[C@H](CCCCN)NC(=O)CNC(=O)[C@H](CO)NC(=O)[C@H](CCCNC(=N)N)NC3=O)C(=O)N[C@@H](CCCCN)C(=O)NCC(=O)N[C@@H](CCCCN)C(=O)NCC(=O)N[C@@H](C)C(=O)N[C@@H](CCCCN)C(=O)N2` [cM-7], in series [1], the EC50 was 0.0135 µM and the IC50 stood at 0.0135 ± 0.0012 µM. Moreover, in series [3], the half-life is 43 min and the fraction remaining at 1 h was ~38%. Also, the LogEC50 in series [2] was -7.8.

In series [1], `CCCC[C@@H]1NC(=O)[C@H](CC(C)C)NC(=O)[C@H](CCCNC(=N)N)NC(=O)[C@H](CO)NC(=O)[C@@H]2CSSC[C@@H]3NC(=O)[C@H](CO)NC(=O)CNC(=O)[C@H]([C@@H](C)O)NC(=O)[C@@H]4CSSC[C@H](NC(=O)[C@H](C)NC(=O)[C@H](C)NC(=O)CNC(=O)CNC(=O)[C@H](CC(N)=O)NC(=O)CNC(=O)CNC(=O)[C@H](C)NC(=O)[C@H](CSSC[C@H](NC(=O)[C@H](CC(=O)O)NC(=O)[C@H](Cc5ccc(O)cc5)NC1=O)C(=O)N4)NC(=O)[C@H](CCCCN)NC(=O)CNC(=O)[C@H](CO)NC(=O)[C@H](CCCNC(=N)N)NC3=O)C(=O)N[C@@H](CCCCN)C(=O)NCC(=O)N[C@@H](CCCCN)C(=O)NCC(=O)N[C@@H](C)C(=O)N[C@@H](CCCCN)C(=O)N2` [cM-8] gave an EC50 of 0.0218 µM and an IC50 of 0.0218 ± 0.0012 µM. Moreover, the LogEC50 in series [2] is listed as -7.6.

Take `CCCC[C@@H]1NC(=O)[C@H](CC(C)C)NC(=O)[C@H](CCCNC(=N)N)NC(=O)[C@H](CO)NC(=O)[C@@H]2CSSC[C@@H]3NC(=O)[C@H](CO)NC(=O)CNC(=O)[C@H]([C@@H](C)O)NC(=O)[C@@H]4CSSC[C@H](NC(=O)[C@H](C)NC(=O)[C@H](C)NC(=O)CNC(=O)CNC(=O)[C@H](CC(N)=O)NC(=O)CNC(=O)CNC(=O)[C@H](C)NC(=O)[C@H](C)NC(=O)[C@H](CSSC[C@H](NC(=O)[C@H](CC(=O)O)NC(=O)[C@H](Cc5ccc(O)cc5)NC1=O)C(=O)N4)NC(=O)[C@H](CCCCN)NC(=O)CNC(=O)[C@H](CO)NC(=O)[C@H](CCCNC(=N)N)NC3=O)C(=O)N[C@@H](CCCCN)C(=O)NCC(=O)N[C@@H](CCCCN)C(=O)NCC(=O)N[C@@H](C)C(=O)N[C@@H](CCCCN)C(=O)N2` [cM-9]: in series [1], the response was half-maximal at 0.307 µM (EC50) and the concentration for half-maximal inhibition (IC50) was 0.3066 ± 0.0015 µM. In addition, in series [2], the LogEC50 is on record as -6.4.
